# Target: T1, BRD4 BD2 (Homo sapiens, UniProt O60885, Y97A)
# T1 construct: BRD4 (1-477) (Y97A) and (Y390A); made in house; host or cells: E. coli (pET15b vector)
# Assay: BRD4 BD2 TR-FRET competition assay (mutant tandem bromodomain)
# Format: binding
# Settings: read-out: pIC50 in the BRD4 BD2 assay (converted)
# Procedure: Bromodomain binding was assessed utilising a time resolved fluorescent resonance energy transfer (TR-FRET) competition assay. To enable this approach a known, high affinity, pan-BET interacting small molecule was labelled with Alexa Fluor® 647, which is a far-red-fluorescent dye (Reference Compound X). Reference Compound X acts as a reporter of bromodomain binding and is the acceptor fluorophore component of the TR-FRET pair. Europium chelate, conjugated to an anti-6*His antibody, was utilised as the donor fluorophore in the TR-FRET pair. […] A TR-FRET signal is generated when the donor and acceptor fluorophores are in close proximity, between 20-80 Å, which is enabled in this assay by binding of Reference Compound X to the bromodomain protein.
# Assay Principle: In order to generate a TR-FRET signal, donor fluorophore is excited by a laser at λ337 nm, which subsequently leads to emission at λ618 nm. If the acceptor fluorophore is in close proximity then energy transfer can occur, which leads to emission of Alexa Fluor® 647 at λ665 nm. In the presence of competitor compound, Reference Compound X can be displaced from binding to the bromodomain. If displacement occurs, the acceptor fluorophore is no longer in proximity to the donor fluorophore, which prevents fluorescent energy transfer and, subsequently, a loss of Alexa Fluor®647 emission at λ665 nm.
# (§1) The competition of the compounds of formula (I) with Reference Compound X for binding to the BET family (BRD2, BRD3, BRD4 and BRDT) was assessed using protein truncates spanning both bromodomain 1 (BD1) and bromodomain 2 (BD2). In order to monitor differential binding to either BD1 or BD2, single residue mutations of key tyrosines to alanine were made in the acetyl lysine binding pockets. To validate this approach, a double residue mutant tandem domain protein was produced for each of the BET family members. Utilising a Fluorescence Polarisation approach, binding affinities for each of the single and double mutants for Reference Compound X were determined.
# Final purification was completed by Superdex 200 prep grade size exclusion column. Purified protein was stored at −80° C. in 20 mM HEPES pH 7.5 and 100 mM NaCl.
# Protocol for Bromodomain BRD2, 3, 4 and T, BD1+BD2 mutant TR-FRET competition assays: All assay components were dissolved in an assay buffer composing of 50 mM HEPES pH7.4, 50 mM NaCl, 5% Glycerol, 1 mM DTT and 1 mM CHAPS. […] The solution containing bromodomain and Reference Compound X was added to dose response dilutions of test compound or DMSO vehicle (a maximum of 0.5% DMSO is used in this assay) in Greiner 384 well black low volume microtitre plates and subsequently incubated for 30 minutes at rt. An equal volume of 3 nM of anti-6*His Europium chelate was added to all wells, followed by a further 30 minute incubation at rt. TR-FRET was detected using a Perkin Elmer Multimode plate reader, by exciting the donor fluorophore at λ337 nm and subsequently, after a delay of 50 μsecs, measuring emission of the donor and acceptor fluorophores at λ615 nm and λ665 nm, respectively. In order to control these assays, 16 replicates each of uninhibited (DMSO vehicle) and inhibited (10*IC50 concentrations of Example 11 of WO 2011/054846A1) TR-FRET assays were included on every microtitre plate.
# cA four parameter curve fit of the following form was then applied:
# y=a+((b−a)/(1+(10^x/10^c)^d) • Where ‘a’ is the minimum, ‘b’ is the […], ‘c’ is the pIC50 and ‘d’ is the […].
# Those of skill in the art will recognise that in vitro binding assays and cell-based assays for functional activity are subject to experimental variability. Accordingly, it is to be understood that the pIC50 values given below are exemplary only. pIC50 values are expressed as log10 units.
row,Compound,IC50 [µM]
1,"CNC(=O)c1cc(C(=O)N[C@H]2[C@@H]3COC[C@@H]32)c([C@H](CC#N)c2cccc(Cl)c2)o1 (single isomer, unassigned) [Example 88, N^4-((1R,5S,6r)-3-Oxabicyclo[3.1.0]hexan-6-yl)-5-((R*)-1-(3-chlorophenyl)-2-cyanoethyl)-N^2-methylfuran-2,4-dicarboxamide]",1 to 10
2,"CNC(=O)c1cc(C(=O)N[C@H]2[C@@H]3COC[C@@H]32)c([C@H](C)c2cccc(Cl)c2)o1 (single isomer, unassigned) [Example 89, N^4-((1R,5S,6r)-3-Oxabicyclo[3.1.0]hexan-6-yl)-5-((R*)-1-(3-chlorophenyl)ethyl)-N^2-methylfuran-2,4-dicarboxamide]",1 to 10
3,"CNC(=O)c1cc(C(=O)N[C@H]2CC[C@H](O)CC2)c([C@@H](OC)c2cccc(Cl)c2)o1 (single isomer, unassigned) [Example 93, 5-((S*)-(3-Chlorophenyl)(methoxy)methyl)-N^4-((1r,4S)-4-hydroxycyclohexyl)-N^2-methylfuran-2,4-dicarboxamide]",1 to 10
4,"CNC(=O)c1cc(C(=O)N[C@H]2C[C@@H]2C)c(C(C)c2ccccc2)o1 (single isomer, unassigned) [Example 96, N^2-methyl-N^4-((1S,2S)-2-Methylcyclopropyl)-5-((S*)-1-phenylethyl)furan-2,4-dicarboxamide]",1 to 10
5,"CNC(=O)c1cc(C(=O)N[C@H]2CC[C@H](O)CC2)c([C@@H](CO)c2ccccc2)o1 (single isomer, unassigned) [Example 101, 5-((R*)-2-Hydroxy-1-phenylethyl)-N^4-((1r,4R)-4-hydroxycyclohexyl)-N^2-methylfuran-2,4-dicarboxamide]",1 to 10
6,"CNC(=O)c1cc(C(=O)N[C@H]2CC[C@H](O)CC2)c([C@@H](OC)c2ccccc2)o1 (single isomer, unassigned) [Example 108, N^4-((1r,4S)-4-Hydroxycyclohexyl)-5-((S*)-methoxy(phenyl)methyl)-N^2-methylfuran-2,4-dicarboxamide]",1 to 10
7,"CNC(=O)c1cc(C(=O)NCC2CC2)c([C@@H](C)c2ccccc2)o1 [Example 104, (S)-N^4-(Cyclopropylmethyl)-N^2-methyl-5-(1-phenylethyl)furan-2,4-dicarboxamide]",1 to 10

# Now from value to compound:
row,IC50 [µM],Compound
1,1 to 10,"CNC(=O)c1cc(C(=O)N[C@H]2CC[C@H](O)CC2)c([C@@H](C)c2cc(Cl)cc(OC)c2)o1 (single isomer, unassigned) [Example 94, 5-((S*)-1-(3-Chloro-5-methoxyphenyl)ethyl)-N^4-((1r,4S)-4-hydroxycyclohexyl)-N^2-methylfuran-2,4-dicarboxamide]"
2,1 to 10,"CNC(=O)c1cc(C(=O)N[C@H]2CC[C@H](O)CC2)c([C@@H](C)c2ccc(OC)c(Cl)c2)o1 (single isomer, unassigned) [Example 95, 5-((S*)-1-(3-Chloro-4-methoxyphenyl)ethyl)-N^4-((1r,4S)-4-hydroxycyclohexyl)-N^2-methylfuran-2,4-dicarboxamide]"
3,1 to 10,"CNC(=O)c1cc(C(=O)N[C@H]2CC[C@H](O)CC2)c([C@@H](C)c2ccc(C)c(Cl)c2)o1 (single isomer, unassigned) [Example 98, 5-((S*)-1-(3-Chloro-4-methylphenyl)ethyl)-N^4-((1r,4S)-4-hydroxycyclohexyl)-N^2-methylfuran-2,4-dicarboxamide]"
4,1 to 10,"CNC(=O)c1cc(C(=O)N[C@H]2CC[C@H](O)CC2)c([C@@H](C)c2ccc(OC)cc2)o1 (single isomer, unassigned) [Example 102, N^4-((1r,4S)-4-Hydroxycyclohexyl)-5-((S*)-1-(4-methoxyphenyl)ethyl)-N^2-methylfuran-2,4-dicarboxamide]"
5,1 to 10,"CNC(=O)c1cc(C(=O)N[C@H]2CC[C@H](O)CC2)c([C@@H](C)c2ccc(OC)c(OC)c2)o1 (single isomer, unassigned) [Example 106, 5-((S*)-1-(3,4-Dimethoxyphenyl)ethyl)-N^4-((1r,4S)-4-hydroxycyclohexyl)-N^2-methylfuran-2,4-dicarboxamide]"

# Test system: BET family (BRD2, BRD3, BRD4 and BRDT) tandem bromodomain proteins
# Assay: Fluorescence Polarisation binding of Reference Compound X to single and double mutant tandem BET proteins
# Design: species or system Human
# Settings: compared with the corresponding non-mutated BET protein
# Procedure: as §1, with “determined. […] The affinities of the single mutated bromdomain tandem proteins for Reference Compound X were equi-potent with the corresponding non-mutated BET protein. […] In the TR-FRET competition assay, Reference Compound X is used at a concentration that is equivalent to the Kd for the non-mutated bromodomain, which ensures that no binding at the mutated bromodomain is detected.” for “determined.”
# Protein production: Recombinant Human Bromodomains [(BRD2 (1-473) (Y113A) and (Y386A), BRD3 (1-435) (Y73A) and (Y348A) BRD4 (1-477) (Y97A) and (Y390A) and BRDT (1-397) (Y66A) and (Y309A)] were expressed in E. coli cells (in pET15b vector for BRD2/3/4 and in pET28a vector for BRDT) with a 6-His tag at the N-terminal. The His-tagged Bromodomain pellet was resuspended in 50 mM HEPES (pH7.5), 300 mM NaCl, 10 mM imidazole & 1 μL/mL protease inhibitor cocktail and extracted from the E. coli cells using sonication and purified using a nickel sepharose high performance column, the proteins were washed and then eluted with a linear gradient of 0-500 mM imidazole with buffer 50 mM HEPES (pH7.5), 150 mM NaCl, 500 mM imidazole, over 20 column volumes. Final purification was completed by Superdex 200 prep grade size exclusion column. Purified protein was stored at −80° C. in 20 mM HEPES pH 7.5 and 100 mM NaCl. Protein identity was confirmed by peptide mass fingerprinting and predicted molecular weight confirmed by mass spectrometry.
row,Compound,affinities of the single mutated bromdomain tandem proteins
1,COc1ccc2c(c1)C(c1ccc(Cl)cc1)=N[C@@H](CC(=O)NCCCCCNC(=O)CCCCCC1(C)/C(=C/C=C/C=C/C3=[N+](CCCCS(=O)(=O)O)c4ccc(S(=O)(=O)O)cc4C3(C)C)N(CCCCS(=O)(=O)[O-])c3ccc(S(=O)(=O)O)cc31)c1nnc(C)n1-2 (stereo partly drawn) [Reference Compound X],equi-potent

# Same assay, conditions: double mutant tandem proteins in comparison to non mutated, wild type tandem BET proteins
row,Compound,reduction in Kd [fold]
1,COc1ccc2c(c1)C(c1ccc(Cl)cc1)=N[C@@H](CC(=O)NCCCCCNC(=O)CCCCCC1(C)/C(=C/C=C/C=C/C3=[N+](CCCCS(=O)(=O)O)c4ccc(S(=O)(=O)O)cc4C3(C)C)N(CCCCS(=O)(=O)[O-])c3ccc(S(=O)(=O)O)cc31)c1nnc(C)n1-2 (stereo partly drawn) [Reference Compound X],> 1000

# Same assay, conditions: single mutations of Tyrosine to Alanine
row,Compound,reduction of the Kd of the interaction between the mutated bromodomain and Reference Compound X [fold]
1,COc1ccc2c(c1)C(c1ccc(Cl)cc1)=N[C@@H](CC(=O)NCCCCCNC(=O)CCCCCC1(C)/C(=C/C=C/C=C/C3=[N+](CCCCS(=O)(=O)O)c4ccc(S(=O)(=O)O)cc4C3(C)C)N(CCCCS(=O)(=O)[O-])c3ccc(S(=O)(=O)O)cc31)c1nnc(C)n1-2 (stereo partly drawn) [Reference Compound X],> 1000
